From ChEMBL document CHEMBL5030558, “Optimization and Evaluation of Novel Antifungal Agents for the Treatment of Fungal Infection” (J Med Chem, 2021)
The source made the active and inactive calls. The calls are words filed in the database; no cut-off is given here.

Tests used:
Cryptococcus neoformans [1] = experiment: Antifungal activity against Cryptococcus neoformans H99 assessed as reduction in fungal growth incubated for 72 hrs by CLSI based broth microdilution method; type: functional
Nakaseomyces glabratus = experiment: Antifungal activity against Candida glabrata BG2 assessed as reduction in fungal growth incubated for 48 hrs by CLSI based broth microdilution method; type: functional
Aspergillus fumigatus [2] = experiment: Antifungal activity against Aspergillus fumigatus AF293 assessed as reduction in fungal growth incubated for 48 hrs by CLSI based broth microdilution method; type: functional
[3] = Stability in human liver microsomes assessed as parent compound remaining after 30 mins; type: ADME, Microsome; settings: read-out: Stability
[4] = Stability in rat liver microsomes assessed as parent compound remaining after 30 mins; type: ADME, Microsome; settings: liver microsomes, read-out: Stability
[5] = Stability in human plasma assessed as parent compound remaining after 30 to 120 mins; type: ADME, cell-free; settings: time 30-120 min
[6] = Stability in rat plasma assessed as parent compound remaining after 30 to 120 mins; type: ADME, cell-free; settings: time 30-120 min
[7] = molecular target: Voltage-gated inwardly rectifying potassium channel KCNH2 (Homo sapiens, UniProt Q12809); experiment: Inhibition of human ERG by patch clamp assay
[8] = Stability in rabbit hepatocytes assessed as parent compound remaining incubated for 60 mins; type: ADME, cell-based, Oryctolagus cuniculus, Hepatocyte; settings: read-out: Stability
[9] = Stability in dog hepatocytes assessed as parent compound remaining incubated for 60 mins; type: ADME, cell-based, Canis lupus familiaris, Hepatocyte; settings: read-out: Stability
[10] = Stability in minipig hepatocytes assessed as parent compound remaining incubated for 60 mins; type: ADME, cell-based, Sus scrofa domesticus, Liver; settings: pig, read-out: Stability
HEK293 = experiment: Cytotoxicity against human HEK293 cells upto 12.5 uM incubated for 24 hrs; type: cell-based; settings: hek293, 24 h
[11] = Cmax in Sprague-Dawley rat at 10 mg/kg, po; type: ADME, organism-based; parameters: route oral, dose 10 mg/kg; settings: in vivo
[12] = Oral bioavailability in Sprague-Dawley rat at 10 mg/kg; type: ADME, organism-based; settings: in vivo
[13] = Cmax in dog at 1 mg/kg, iv; type: ADME, organism-based, Canis lupus familiaris; parameters: route intravenous, dose 1 mg/kg; settings: in vivo
[14] = AUC(0 to t) in dog at 1 mg/kg, iv; type: ADME, organism-based, Canis lupus familiaris; parameters: dose 1 mg/kg; settings: in vivo
[15] = AUC(0 to t) in dog at 10 mg/kg, po; type: ADME, organism-based, Canis lupus familiaris; parameters: dose 10 mg/kg; settings: in vivo
[16] = AUC(0 to t) in cynomolgus monkey at 10 mg/kg, iv; type: ADME, organism-based, Macaca fascicularis; parameters: dose 10 mg/kg; settings: in vivo
Trichophyton rubrum [17] = experiment: Fungicidal activity against Trichophyton rubrum KCCM60450 at 4 ug/ml by time-kill kinetics assay; type: functional, organism-based; settings: dose 4.0 µg/ml
Trichophyton rubrum [18] = experiment: Fungicidal activity against Trichophyton rubrum KCCM60450 at 2 times MIC after 8 hrs by time-kill kinetics assay; type: functional, organism-based
Trichophyton rubrum [19] = experiment: Fungicidal activity against Trichophyton rubrum KCCM60450 at 4 times after 2 hrs by time-kill kinetics assay; type: functional, organism-based
Cryptococcus neoformans [20] = experiment: Additive antifungal activity against Cryptococcus neoformans H99 assessed as FICI in presence of 5-FC after 48 hrs by checker board assay; type: functional, organism-based
Cryptococcus neoformans [21] = experiment: Additive antifungal activity against Cryptococcus neoformans H99 assessed as FICI in presence of FCZ after 48 hrs by checker board assay; type: functional, organism-based
Aspergillus fumigatus [22] = experiment: Synergistic antifungal activity against Aspergillus fumigatus AF293 assessed as FICI in presence of ICZ after 48 hrs by checker board assay; type: functional, organism-based
Candida albicans [23] = experiment: Synergistic antifungal activity against Candida albicans ATCC SC5314 assessed as FICI in presence of AmB after 48 hrs by checker board assay; type: functional, organism-based
Candida albicans [24] = experiment: Synergistic antifungal activity against Candida albicans ATCC SC5314 assessed as FICI in presence of ICZ after 48 hrs by checker board assay; type: functional, organism-based
[Candida] auris [25] = Synergistic antifungal activity against Candida auris B8841 assessed as FICI in presence of AmB after 48 hrs by checker board assay; type: functional, organism-based; settings: Candidozyma auris
[Candida] auris [26] = Additive antifungal activity against Candida auris B8841 assessed as assessed as FICI in presence of CSP after 48 hrs by checker board assay; type: functional, organism-based; settings: Candidozyma auris
Candida albicans [27] = experiment: Induction of drug resistant in Candida albicans ATCC SC5314 assessed as increase in compound IC50 at 8 to 12 times MIC; type: functional, organism-based
Cryptococcus neoformans [28] = experiment: Induction of morphological changes in Cryptococcus neoformans H99 assessed as reduction in cell wall thickness at 4 to 8 ug/ml incubated for 24 hrs by TEM analysis; type: functional, organism-based; settings: dose 4-8 µg/ml
Cryptococcus neoformans [29] = experiment: Induction of morphological changes in Cryptococcus neoformans H99 assessed as reduction in capsule thickness at 4 ug/ml incubated for 24 hrs by TEM analysis; type: functional, organism-based; settings: dose 4.0 µg/ml
Candida albicans [30] = experiment: Induction of morphological changes in Candida albicans ATCC SC5314 assessed as reduction in cell wall thickness at 32 ug/ml incubated for 24 hrs by TEM analysis; type: functional, organism-based; settings: dose 32.0 µg/ml
Candida albicans [31] = experiment: Induction of morphological changes in Candida albicans ATCC SC5314 assessed as appearance of detached cytoplasm at 32 ug/ml incubated for 24 hrs by TEM analysis; type: functional, organism-based; settings: dose 32.0 µg/ml
[32] = Effect on cell wall integrity in Cryptococcus neoformans H99 assessed as activation of Mpk1 by measuring increase in Mpk1 phosphorylation ratio at 8 ug/ml after 30 mins by immunoblot analysis (reference value: 1); type: functional; settings: dose 8 µg/ml, 0.5 h
[33] = Effect on cell wall integrity in Cryptococcus neoformans H99 assessed as activation of Mpk1 by measuring increase in Mpk1 phosphorylation ratio at 8 ug/ml after 60 mins by immunoblot analysis (reference value: 1); type: functional; settings: dose 8 µg/ml, 1 h
[34] = Effect on cell wall integrity in Cryptococcus neoformans H99 assessed as increase in HXL1 activation ratio at 4 ug/ml after 2 hrs by immunoblot analysis (reference value: 1); type: functional; settings: dose 4 µg/ml
Cryptococcus neoformans [35] = experiment: Synergistic antifungal activity against Cryptococcus neoformans XW252 in presence of FK506 by checkboard assay; type: functional, organism-based
Candida albicans [36] = experiment: In vivo antifungal activity against Candida albicans 90028 infected in BALB/c mouse assessed as reduction in size of inflammation measured upto 48 hrs post infection; type: functional, organism-based; settings: time hrs <=48
Candida albicans [37] = experiment: In vivo antifungal activity against Candida albicans 90028 infected in BALB/c mouse assessed as appearance of soft epidermal stratum corneum measured upto 48 hrs post infection by histopathological analysis; type: functional, organism-based; settings: time hrs <=48
Trichophyton rubrum [38] = experiment: Ex vivo antifungal activity against Trichophyton rubrum KCCM60450 infected in human nail assessed as reduction in ATP level at 0.1 % w/w after 24 hrs; type: functional; parameters: scale not given: the % may be the effect or the level left
Trichophyton rubrum [39] = experiment: Ex vivo antifungal activity against Trichophyton rubrum KCCM60450 infected in human nail assessed as reduction in ATP level at 0.5 % w/w after 24 hrs; type: functional; parameters: scale not given: the % may be the effect or the level left
Trichophyton rubrum [40] = experiment: Ex vivo antifungal activity against Trichophyton rubrum KCCM60450 infected in human nail assessed as reduction in ATP level at 1 % w/w after 24 hrs; type: functional; parameters: scale not given: the % may be the effect or the level left
Trichophyton rubrum [41] = experiment: Ex vivo antifungal activity against Trichophyton rubrum KCCM60450 infected in human nail assessed as reduction in ATP level at 5 % w/w after 24 hrs; type: functional; parameters: scale not given: the % may be the effect or the level left
[42] = Toxicity in Sprague-Dawley rat assessed as death at 500 to 1000 mg/kg, po measured after 14 days; type: organism-based; settings: in vivo, 336 h, dose 500-1000 mg/kg, time 14 day
[43] = Toxicity in po dosed Sprague-Dawley rat assessed as lethal dose measured after 14 days; type: organism-based; settings: in vivo, 336 h, time 14 day

Voltage-gated inwardly rectifying potassium channel KCNH2, sequence (Q12809 whole entry): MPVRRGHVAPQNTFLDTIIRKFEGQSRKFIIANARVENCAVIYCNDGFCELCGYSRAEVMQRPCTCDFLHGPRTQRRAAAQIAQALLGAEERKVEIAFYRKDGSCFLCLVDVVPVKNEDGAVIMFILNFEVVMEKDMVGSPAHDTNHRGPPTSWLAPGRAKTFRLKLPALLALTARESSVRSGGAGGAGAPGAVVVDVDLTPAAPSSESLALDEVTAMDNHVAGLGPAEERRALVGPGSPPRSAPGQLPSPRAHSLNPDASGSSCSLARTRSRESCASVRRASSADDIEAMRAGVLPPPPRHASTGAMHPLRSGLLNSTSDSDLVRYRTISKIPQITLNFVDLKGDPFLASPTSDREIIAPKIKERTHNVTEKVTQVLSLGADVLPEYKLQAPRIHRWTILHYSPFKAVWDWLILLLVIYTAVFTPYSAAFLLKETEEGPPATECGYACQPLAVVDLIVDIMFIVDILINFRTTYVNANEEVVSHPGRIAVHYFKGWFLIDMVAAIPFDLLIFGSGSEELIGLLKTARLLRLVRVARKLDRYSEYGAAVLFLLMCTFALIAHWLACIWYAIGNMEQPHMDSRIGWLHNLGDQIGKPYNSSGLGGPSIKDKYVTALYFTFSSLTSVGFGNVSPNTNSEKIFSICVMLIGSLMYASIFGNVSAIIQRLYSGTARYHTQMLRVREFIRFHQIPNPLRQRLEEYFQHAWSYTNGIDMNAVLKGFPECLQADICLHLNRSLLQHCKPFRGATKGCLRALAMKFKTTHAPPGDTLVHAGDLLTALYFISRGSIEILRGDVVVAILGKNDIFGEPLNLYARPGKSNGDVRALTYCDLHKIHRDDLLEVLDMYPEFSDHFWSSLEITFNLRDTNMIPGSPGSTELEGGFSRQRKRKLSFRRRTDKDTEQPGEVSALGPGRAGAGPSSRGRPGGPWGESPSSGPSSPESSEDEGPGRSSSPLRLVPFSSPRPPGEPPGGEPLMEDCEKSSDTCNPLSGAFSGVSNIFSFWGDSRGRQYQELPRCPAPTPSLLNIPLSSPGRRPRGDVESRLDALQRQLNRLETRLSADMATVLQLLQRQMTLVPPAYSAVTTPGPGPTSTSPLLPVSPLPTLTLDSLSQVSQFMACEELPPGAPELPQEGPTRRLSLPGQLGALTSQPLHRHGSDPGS

Structure (SMILES): CCCC(N)C(=O)NCCc1ccc(-c2ccc(Cl)c(Cl)c2)cc1.Cl (racemic)
- MIC (Cryptococcus neoformans [1]): 1 µg/mL
- MIC (Nakaseomyces glabratus): 4 µg/mL
- MIC (Aspergillus fumigatus [2]): 4 µg/mL
- remaining at 0.5 h [3]: 90%
- remaining at 0.5 h [4]: 72.3%
- Stability [5]: 97%
- Stability [6]: 96.2%
- IC50 [7]: 39.5 µM
- remaining at 1 h [8]: 64.6%
- remaining at 1 h [9]: 61.1%
- remaining at 1 h [10]: 49.6%
- Activity (HEK293): Non-Toxic
- Cmax [11]: 97.3 ng/mL
- bioavailability [12]: 39.8%
- Cmax [13]: 296 ng/mL
- AUC(0-t) [14]: 2680 ng·h/mL
- AUC(0-t) [15]: 30500 ng·h/mL
- AUC(0-t) [16]: 7150 ng·h/mL
- Activity (Trichophyton rubrum [17]): Active
- Activity (Trichophyton rubrum [18]): Active
- Activity (Trichophyton rubrum [19]): Active
- Activity (Cryptococcus neoformans [20]): Active
- Activity (Cryptococcus neoformans [21]): Active
- Activity (Aspergillus fumigatus [22]): Active
- Activity (Candida albicans [23]): Active
- Activity (Candida albicans [24]): inactive
- Activity ([Candida] auris [25]): Active
- Activity ([Candida] auris [26]): Active
- Activity (Candida albicans [27]): inactive
- Activity (Cryptococcus neoformans [28]): Active
- Activity (Cryptococcus neoformans [29]): Active
- Activity (Candida albicans [30]): Active
- Activity (Candida albicans [31]): Active
- Ratio [32]: 2.67
- Ratio [33]: 3.62
- Ratio [34]: 1.12
- Activity (Cryptococcus neoformans [35]): Active
- Activity (Candida albicans [36]): Active
- Activity (Candida albicans [37]): Active
- Activity (Trichophyton rubrum [38]): 73.02%
- Activity (Trichophyton rubrum [39]): 32.72%
- Activity (Trichophyton rubrum [40]): 24.68%
- Activity (Trichophyton rubrum [41]): 19.92%
- Activity [42]: Non-Toxic
- Activity [43]: 2000 mg/kg
